Test results as given in the supplement of paper PMC10307832.

What was measured:
Experiment in all cases: relative viability (nuclei count vs DMSO), 5 days (fraction); higher = more cells survive
Motesanib + OSI-027 = compound: CC1(C)CNc2cc(NC(=O)c3cccnc3NCc3ccncc3)ccc21 [Motesanib] + COc1cccc2cc(-c3nc([C@H]4CC[C@H](C(=O)O)CC4)n4ncnc(N)c34)[nH]c12 [OSI-027] (partner 0.5 µM)
Method in brief: (§1)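 Lung cancer cell lines, seeded in 1536-well plates, were treated the following day by pin tool with a single drug or with five library-drug doses (not always all listed) in √10 steps on top of a fixed anchor-drug dose. Cells were fixed and nuclei stained in one step after 5 days, and nuclei were counted. Relative viability is the nuclei count for treated wells divided by that for vehicle wells, reported as medians of duplicate plates.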

[1] = compound: C[C@@]1(C(=O)Nc2ccc(F)nc2)CCCN1c1nc(Nc2cc(C3CC3)n[nH]2)c2cccn2n1 + CS(=O)(=O)CCNCc1ccc(-c2ccc3ncnc(Nc4ccc(OCc5cccc(F)c5)c(Cl)c4)c3c2)o1 [Lapatinib] (partner 2 µM)
Method in brief: as §1

[2] = compound: C[C@@]1(C(=O)Nc2ccc(F)nc2)CCCN1c1nc(Nc2cc(C3CC3)n[nH]2)c2cccn2n1 + Cc1nc(Nc2ncc(C(=O)Nc3c(C)cccc3Cl)s2)cc(N2CCN(CCO)CC2)n1 [Dasatinib] (partner 0.075 µM)
Method in brief: as §1

Motesanib + Pictilisib = compound: CC1(C)CNc2cc(NC(=O)c3cccnc3NCc3ccncc3)ccc21 [Motesanib] + CS(=O)(=O)N1CCN(Cc2cc3nc(-c4cccc5[nH]ncc45)nc(N4CCOCC4)c3s2)CC1 [Pictilisib] (partner 1 µM)
Method in brief: as §1

Cell Line	relative viability (Motesanib + OSI-027; first compound 0.01 µM)	relative viability (Motesanib + OSI-027; first compound 0.03162 µM)	relative viability (Motesanib + OSI-027; first compound 0.1 µM)	relative viability (Motesanib + OSI-027; first compound 0.3162 µM)	relative viability (Motesanib + OSI-027; first compound 1 µM)	relative viability ([1]; first compound 0.04 µM)	relative viability ([1]; first compound 0.1265 µM)	relative viability ([1]; first compound 0.4 µM)	relative viability ([1]; first compound 1.265 µM)	relative viability ([2]; first compound 0.04 µM)	relative viability ([2]; first compound 0.1265 µM)	relative viability ([2]; first compound 0.4 µM)	relative viability ([2]; first compound 1.265 µM)	relative viability (Motesanib + Pictilisib; first compound 0.01 µM)	relative viability (Motesanib + Pictilisib; first compound 0.03162 µM)	relative viability (Motesanib + Pictilisib; first compound 0.1 µM)	relative viability (Motesanib + Pictilisib; first compound 0.3162 µM)	relative viability (Motesanib + Pictilisib; first compound 1 µM)
NCI-H2347	0.411	0.364	0.357	0.51	0.493	0.955	0.874	0.842	0.959	0.289	0.288	0.343	0.189	0.476	0.803	0.382	0.456	0.678
NCI-H1993	0.526	0.554	0.552	0.543	0.557	0.797	–	0.663	0.592	0.523	0.454	0.356	0.512	0.676	0.917	0.899	0.767	0.805
NCI-H322M	0.471	0.584	0.506	0.584	0.566	0.533	0.441	0.374	0.341	0.239	0.197	0.241	0.225	0.52	0.544	0.511	0.439	0.538
NCI-H838	0.448	0.313	0.394	0.438	0.415	0.895	0.85	0.597	0.622	0.299	0.198	0.187	0.213	0.496	0.441	0.462	0.449	0.508
HARA	0.439	0.724	0.527	0.554	0.557	0.409	0.466	0.248	0.244	0.297	0.203	0.188	0.163	0.372	0.366	0.405	0.389	0.461
NCI-H2087	0.427	0.544	0.585	0.705	0.573	1.09	0.958	0.88	0.945	0.727	0.568	0.508	0.389	0.695	0.794	0.705	0.988	0.843
NCI-H1437	0.872	0.899	0.903	0.803	0.856	0.626	0.445	0.369	0.496	0.218	0.236	0.223	0.125	0.441	0.441	0.467	0.502	0.406
NCI-H1792	–	0.65	0.723	0.824	0.651	0.82	0.412	0.546	0.696	0.283	1.06	0.211	0.227	0.296	0.231	0.294	0.297	0.309
NCI-H650	0.529	–	0.539	0.574	0.537	0.853	0.828	0.625	0.55	0.404	0.283	0.321	0.29	0.832	0.757	0.875	0.992	0.854
COR-L23	0.788	0.721	0.874	0.753	0.806	1.12	0.957	0.994	0.423	0.433	0.334	0.214	0.219	0.701	0.864	0.732	0.836	0.854
COR-L 105	0.768	0.7	0.717	0.689	0.626	0.344	0.324	0.28	0.233	0.3	0.208	0.185	0.18	0.489	0.439	0.395	0.49	0.385
LK-2	0.225	0.195	0.168	0.218	0.256	–	1.16	0.584	0.713	0.217	0.184	0.155	0.229	0.576	0.513	0.555	0.621	0.537
201T	0.683	0.726	0.779	0.506	0.69	1.05	0.91	0.717	0.862	0.326	0.29	0.301	0.324	0.671	0.688	0.68	0.679	0.71
NCI-H596	0.913	0.772	0.732	0.6	0.75	1.04	0.849	0.848	0.783	0.552	0.439	0.415	0.372	0.391	0.427	0.362	0.384	0.406
H3255	0.608	0.601	0.603	0.558	0.635	0.243	0.291	0.226	0.155	0.36	0.361	0.282	0.235	0.473	0.487	0.491	0.488	0.427
NCI-H647	0.848	0.528	0.578	0.717	0.557	1.07	1.03	0.84	0.457	0.361	0.0884	0.105	0.214	–	0.394	0.408	0.333	0.442
NCI-H2023	0.453	0.374	0.373	0.404	0.429	0.722	0.542	0.259	0.236	0.407	0.165	0.154	0.105	0.234	0.226	0.276	0.239	0.238
NCI-H23	0.602	0.593	0.609	0.675	0.614	0.958	0.496	0.695	0.6	0.653	0.384	0.325	0.269	0.415	0.41	–	0.562	0.53
